Test results as given in patent US20130012519A1, “Biomarker Identifying the Reactivation of STAT3 After Src Inhibition” (BRISTOL-MYERS SQUIBB COMPANY, priority 2006, published 2013).
Entries after “also recorded” stand apart in the source; their conditions may differ. Blank lines part the entries; values can stand above or below the molecule they belong to.

Columns and labels:
STAT3 [1] = experiment: Western blot / Bioplex phosphoprotein assay, STAT3 activation (pY705-STAT3) in cancer cell lines; conditions: for STAT3 inhibition on addition of JAK inhibitor to dasatinib: JAK inhibitor added to dasatinib; for effect of added inhibitor on STAT3 reactivation by dasatinib: Tu167 cells treated with dasatinib plus the inhibitor; for STAT3 inhibition / re-activation: Tu167 cells treated with one of three SFK inhibitors for 24 hours
[2] = system: imatinib-resistant BCR-ABL mutants; conditions: number of mutants out of those tested; Weisberg et al. 2006; cited from earlier work
wild-type BCR-ABL = conditions: read-out: IC50 against wild-type BCR-ABL; Weisberg et al. 2006; cited from earlier work
c-Src = molecular target: T1, c-Src (Homo sapiens, UniProt P12931); experiment: Western blot, c-Src inhibition in cancer cell lines; format: cell-based; conditions: Tu167 cells treated with one of three SFK inhibitors for 24 hours
T1 construct: endogenous in cells; host or cells: fifteen human cancer cell lines (HNSCC incl. Tu167, NSCLC, mesothelioma, squamous skin cancer)
T1 sequence (P12931 whole entry): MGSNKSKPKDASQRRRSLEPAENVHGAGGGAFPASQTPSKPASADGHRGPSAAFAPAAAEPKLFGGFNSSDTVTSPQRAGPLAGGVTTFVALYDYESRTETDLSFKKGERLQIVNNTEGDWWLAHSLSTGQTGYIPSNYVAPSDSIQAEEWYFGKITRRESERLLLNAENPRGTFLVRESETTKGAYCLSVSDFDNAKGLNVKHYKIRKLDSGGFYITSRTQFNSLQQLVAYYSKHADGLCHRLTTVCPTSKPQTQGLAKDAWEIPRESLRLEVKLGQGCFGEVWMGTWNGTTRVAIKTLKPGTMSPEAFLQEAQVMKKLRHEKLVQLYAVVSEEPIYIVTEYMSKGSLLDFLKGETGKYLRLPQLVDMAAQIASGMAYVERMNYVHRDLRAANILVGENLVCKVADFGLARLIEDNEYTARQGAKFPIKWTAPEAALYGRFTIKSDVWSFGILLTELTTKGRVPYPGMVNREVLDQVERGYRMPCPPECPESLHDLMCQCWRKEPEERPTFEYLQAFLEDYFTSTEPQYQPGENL

IGF1R = molecular target: T2, IGF1R (Homo sapiens, UniProt P08069); experiment: IGF1R activation in cells; format: cell-based; conditions: cells treated with dasatinib
T2 construct: endogenous in cells
T2 sequence (P08069 31-1367): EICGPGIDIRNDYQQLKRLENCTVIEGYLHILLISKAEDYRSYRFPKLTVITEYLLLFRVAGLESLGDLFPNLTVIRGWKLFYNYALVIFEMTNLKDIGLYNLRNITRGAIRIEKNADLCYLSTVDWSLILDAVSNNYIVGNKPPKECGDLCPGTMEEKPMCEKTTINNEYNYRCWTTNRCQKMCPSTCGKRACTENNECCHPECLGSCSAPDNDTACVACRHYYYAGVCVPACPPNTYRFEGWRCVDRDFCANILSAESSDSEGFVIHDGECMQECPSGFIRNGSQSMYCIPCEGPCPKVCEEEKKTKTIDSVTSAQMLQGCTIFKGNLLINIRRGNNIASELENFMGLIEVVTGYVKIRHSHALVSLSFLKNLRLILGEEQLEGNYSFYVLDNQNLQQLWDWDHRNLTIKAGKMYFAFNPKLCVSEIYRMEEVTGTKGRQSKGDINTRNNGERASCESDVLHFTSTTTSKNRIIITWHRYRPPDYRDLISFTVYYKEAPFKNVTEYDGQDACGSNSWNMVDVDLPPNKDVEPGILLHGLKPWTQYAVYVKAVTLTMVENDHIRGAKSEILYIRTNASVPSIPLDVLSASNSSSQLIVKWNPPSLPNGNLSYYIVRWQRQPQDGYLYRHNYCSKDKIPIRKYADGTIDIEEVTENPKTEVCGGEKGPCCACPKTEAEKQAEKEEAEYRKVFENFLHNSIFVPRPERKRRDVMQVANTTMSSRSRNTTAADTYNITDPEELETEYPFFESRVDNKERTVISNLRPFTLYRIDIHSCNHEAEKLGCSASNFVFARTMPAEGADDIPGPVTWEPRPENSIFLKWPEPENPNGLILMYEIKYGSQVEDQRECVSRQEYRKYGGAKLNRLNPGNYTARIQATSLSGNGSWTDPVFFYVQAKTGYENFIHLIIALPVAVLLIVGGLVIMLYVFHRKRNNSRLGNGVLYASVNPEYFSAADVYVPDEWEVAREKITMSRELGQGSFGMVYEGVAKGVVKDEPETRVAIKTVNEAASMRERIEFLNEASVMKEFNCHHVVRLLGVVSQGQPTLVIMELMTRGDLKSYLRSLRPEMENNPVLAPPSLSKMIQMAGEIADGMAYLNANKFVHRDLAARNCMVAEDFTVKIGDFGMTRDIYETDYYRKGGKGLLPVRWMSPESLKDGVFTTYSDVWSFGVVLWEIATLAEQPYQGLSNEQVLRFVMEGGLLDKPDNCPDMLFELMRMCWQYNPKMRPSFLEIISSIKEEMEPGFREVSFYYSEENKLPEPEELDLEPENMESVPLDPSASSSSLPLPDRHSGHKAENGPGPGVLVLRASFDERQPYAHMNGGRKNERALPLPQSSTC

MAPK [3] = conditions: HNSCC cells treated with dasatinib; Johnson et al. 2005; cited from earlier work
[4] = system: 25 human cytokines/chemokines; experiment: Cytokine profiling of cell media (25-plex bead kit), other cytokines; format: cell-based; conditions: 100 nM dasatinib; serum-free and complete medium; 6 and 24 h
FAK = experiment: Western blot, FAK downstream of Src in cancer cell lines; format: cell-based, human
AKT = experiment: Western blot, AKT downstream of Src in cancer cell lines; format: cell-based, human
STAT3 [5] = conditions: panel of NSCLC cell lines with mutant or wild-type EGFR; literature; cited from earlier work
IL-6 = experiment: Cytokine profiling of cell media (25-plex bead kit), IL-6; format: cell-based, human; conditions: 100 nM dasatinib; serum-free and complete medium; 6 and 24 h
[6] = system: head and neck squamous carcinoma and non-small cell lung cancer cell lines; conditions: cited from earlier work
IL-8 = experiment: Cytokine profiling of cell media (25-plex bead kit), IL-8; format: cell-based, human; conditions: 100 nM dasatinib; serum-free and complete medium; 6 and 24 h
STAT5 = experiment: Western blot, STAT5 downstream of Src in cancer cell lines; format: cell-based, human
MAPK [7] = experiment: Western blot, MAPK activation in HNSCC cells; conditions: Tu167 cells treated with EGF
[8] = Tu167 cells, 100 nM dasatinib for the indicated times
[9] = all fifteen human cancer cell lines, 100 nM dasatinib, 0-24 h

Molecule: N#C/C(=C/c1ccc(O)c(O)c1)C(=O)NCc1ccccc1 [AG490]
STAT3 inhibition on addition of JAK inhibitor to dasatinib (STAT3 [1]): sustained inhibition of STAT3

Molecule: Cc1cn(-c2cc(NC(=O)c3ccc(C)c(Nc4nccc(-c5cccnc5)n4)c3)cc(C(F)(F)F)c2)cn1 [AMN107]
imatinib-resistant BCR-ABL mutants against which significantly active [2]: 32/33 | IC50 (wild-type BCR-ABL): […]

Molecule: COc1cccc(-c2cc(=O)c3ccccc3o2)c1N [PD98059]
effect of added inhibitor on STAT3 reactivation by dasatinib (STAT3 [1]): no effect on STAT3 reactivation

c-Src inhibition (c-Src): durable c-Src inhibition
Molecule: Cc1ccc(-c2nn(C(C)(C)C)c3ncnc(N)c23)cc1 [PP1]
STAT3 inhibition / re-activation (STAT3 [1]; Western blot): not inhibited at 24 hours

c-Src inhibition (c-Src): durable c-Src inhibition
Molecule: COc1cc(Nc2c(C#N)cnc3cc(OCCCN4CCN(C)CC4)c(OC)cc23)c(Cl)cc1Cl [SKI606]
STAT3 inhibition / re-activation (STAT3 [1]; Western blot): not inhibited at 24 hours

Molecule: Cc1nc(Nc2ncc(C(=O)Nc3c(C)cccc3Cl)s2)cc(N2CCN(CCO)CC2)n1 [dasatinib, N-(2-chloro-6-methylphenyl)-2-[[6-[4-(2-hydroxyethyl)-1-piperazinyl]-2-methyl-4-pyrimidinyl]amino]-5-thiazolecarboxamide]
IGF1R activation (IGF1R): nor did dasatinib affect IGF1R activation | MAPK activation (MAPK [3]): transiently activated | increase of any of 25 cytokines / growth factors assayed [4]: No cytokine or growth factor assayed was significantly increased | production of IL-1beta, IL-12p40, IL-15, TNF-alpha, interferon-alpha, inducible protein-10, MIG, RANTES, IL-10 [4]: unaffected | FAK inhibition (FAK; [8]): durable inhibition | FAK inhibition (FAK; [9]): rapidly and durably inhibited | AKT inhibition (AKT; [8]): durable inhibition | AKT inhibition (AKT; [9]): rapidly and durably inhibited | effect of SFK inhibition on STAT3 activation (STAT3 [5]): modest to absent | IL-6 production (IL-6): decreased | effects in cancer cell lines [6]: cytotoxicity, cell cycle arrest and apoptosis | IL-8 production (IL-8): decreased | STATS inhibition (STAT5; [8]): durable inhibition | STATS inhibition (STAT5; [9]): rapidly and durably inhibited | STAT3 activation (pSTAT3) (STAT3 [1]; 14 of 15 solid tumor cell lines (HNSCC, NSCLC, mesothelioma, squamous skin carcinoma), 100 nM dasatinib, 0-24 h, Western blot): intitally inhibited but levels of pSTAT3 (Y105) returned to or above baseline by 24 h; also recorded: initially inhibited but reactivated by 24 h | STAT3 inhibition / re-activation (STAT3 [1]; Western blot): not inhibited at 24 hours | STAT3 inhibition (STAT3 [1]; Tu167 cells, 100 nM dasatinib for the indicated times, Western blot): not durably inhibited | STAT3 activation in fresh cells by conditioned medium (STAT3 [1]; conditioned medium from Tu167 cells treated with dasatinib for 24 h transferred to fresh cells): did not observe any STAT3 activation

Molecule: C#Cc1cccc(Nc2ncnc3cc(OCCOC)c(OCCOC)cc23)c1 [erlotinib]
effect of added inhibitor on STAT3 reactivation by dasatinib (STAT3 [1]): did not affect the STAT3 reactivation

Molecule: CC(C)(C)c1nc2c3cc[nH]c(=O)c3c3cc(F)ccc3c2[nH]1 [pyridone 6]
STAT3 inhibition on addition of JAK inhibitor to dasatinib (STAT3 [1]): sustained inhibition of STAT3

Molecule: EGF: epidermal growth factor, used to stimulate cells (NSDSECPLSHDGYCLHDGVCMYIEALDKYACNCVVGYIGERCQYRDLKWWELR; UniProt P01133 971-1023, looked up)
MAPK activation on stimulation (MAPK [7]): markedly activated | STAT3 activation on stimulation (STAT3 [1]; Tu167 cells treated with EGF): slight increase in STAT3 activation

Molecule: insulin-like growth factor
STAT3 activation on stimulation (STAT3 [1]; stimulation of cells with insulin-like growth factor): did not lead to significant activation of STAT3
